Laboratory results as given in PubChem BioAssay AID248 (DTP/NCI, 2004).
Where “and” joins values, the source holds several entries; their conditions need not be identical. Equal values may be shown once. Inconclusive results and toxic doses are left out.

Tested on: L1210 leukemia ip in BDF1 mice, survival T/C
Experiment: NCI In Vivo Anticancer Drug Screen. Data for tumor model L1210 Leukemia (intraperitoneal) in B6D2F1 (BDF1) mice
Details: endpoint: mean survival time, higher = longer survival
How it was run: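 Transplantable tumor model; survival measured in treated vs vehicle control mice. Value = treated/control.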

[1] = dose: 100.0 mg/kg/injection, schedule: Q01DX009 (ip), vehicle: Klucel (hydroxypropylcellulose) (HPC)
[2] = dose: 100.0 mg/kg/injection, schedule: Q04DX003 (ip), vehicle: Klucel (hydroxypropylcellulose) (HPC)
[3] = dose: 200.0 mg/kg/injection, schedule: Q01DX009 (ip), vehicle: Klucel (hydroxypropylcellulose) (HPC)
[4] = dose: 200.0 mg/kg/injection, schedule: Q04DX003 (ip), vehicle: Klucel (hydroxypropylcellulose) (HPC)
[5] = dose: 400.0 mg/kg/injection, schedule: Q01DX009 (ip), vehicle: Klucel (hydroxypropylcellulose) (HPC)
[6] = dose: 400.0 mg/kg/injection, schedule: Q04DX003 (ip), vehicle: Klucel (hydroxypropylcellulose) (HPC)
[7] = dose: 100.0 mg/kg/injection, schedule: Q01DX009 (ip), vehicle: saline with Tween-80
[8] = dose: 200.0 mg/kg/injection, schedule: Q01DX009 (ip), vehicle: saline with Tween-80
[9] = dose: 400.0 mg/kg/injection, schedule: Q01DX009 (ip), vehicle: saline with Tween-80
[10] = dose: 100.0 mg/kg/injection, schedule: Q04DX002 (ip), vehicle: Klucel (hydroxypropylcellulose) (HPC)
[11] = dose: 200.0 mg/kg/injection, schedule: Q04DX002 (ip), vehicle: Klucel (hydroxypropylcellulose) (HPC)
[12] = dose: 400.0 mg/kg/injection, schedule: Q04DX002 (ip), vehicle: Klucel (hydroxypropylcellulose) (HPC)

`COc1ccc(NC(=O)Nc2ccccc2Cl)c(OC)c1` was tested, and the T/C (dose: 100.0 mg/kg/injection, schedule: Q04DX002 (ip), vehicle: saline with Tween-80) was 87 % of control and the T/C (dose: 400.0 mg/kg/injection, schedule: Q04DX002 (ip), vehicle: saline with Tween-80) was 87 % of control.
For `CNC(=N)c1ccc(NC(=N)c2ccc(NC(=O)Nc3ccc(C(=N)Nc4ccc(C(=N)NC)cc4)cc3)cc2)cc1`, the T/C (dose: 0.25 mg/kg/injection, schedule: Q01DX Z (ip), vehicle: water) was 98 % of control, the T/C (dose: 0.5 mg/kg/injection, schedule: Q01DX Z (ip), vehicle: water) was 96 % of control and the T/C (dose: 1.0 mg/kg/injection, schedule: Q01DX Z (ip), vehicle: water) was 96 % of control. For the same molecule, the T/C (dose: 1.87 mg/kg/injection, schedule: Q01DX Z (ip), vehicle: water) was 92 % of control, the T/C (dose: 2.0 mg/kg/injection, schedule: Q01DX Z (ip), vehicle: water) was 104 % of control and the T/C (dose: 3.75 mg/kg/injection, schedule: Q01DX Z (ip), vehicle: water) was 156 % of control. For the same molecule, the T/C (dose: 7.0 mg/kg/injection, schedule: Q01DX Z (ip), vehicle: carboxymethylcellulose (CMC)) was 165 % of control, the T/C (dose: 7.5 mg/kg/injection, schedule: Q01DX Z (ip), vehicle: water) was 246 % of control and the T/C (dose: 10.0 mg/kg/injection, schedule: Q01DX Z (ip), vehicle: water) was 209 % of control. For the same molecule, the T/C (dose: 14.0 mg/kg/injection, schedule: Q01DX Z (ip), vehicle: carboxymethylcellulose (CMC)) was 160 % of control, the T/C (dose: 25.0 mg/kg/injection, schedule: Q01DX Z (oral), vehicle: water) was 100 % of control and the T/C (dose: 50.0 mg/kg/injection, schedule: Q01DX Z (oral), vehicle: water) was 98 % of control. The T/C (dose: 100.0 mg/kg/injection, schedule: Q01DX Z (oral), vehicle: water) was 104 % of control and the T/C (dose: 200.0 mg/kg/injection, schedule: Q01DX Z (oral), vehicle: water) was 100 % of control.
With `NNS(=O)(=O)c1ccc(OCC(=O)O)cc1` the T/C [1] was 98 % of control, the T/C [2] was 102 % of control and the T/C [3] was 94 % of control. The T/C [4] was 98 % of control, the T/C [5] was 94 % of control and the T/C [6] was 98 % of control.
For `Cc1nc(OCc2ccccc2)c(C(=O)OCc2ccccc2)nc1C`, the T/C [7] was 103 % of control, the T/C (dose: 100.0 mg/kg/injection, schedule: Q04DX003 (ip), vehicle: saline with Tween-80) was 101 % of control and the T/C [8] was 97 % of control. For the same molecule, the T/C (dose: 200.0 mg/kg/injection, schedule: Q04DX003 (ip), vehicle: saline with Tween-80) was 102 % of control, the T/C [9] was 101 % of control and the T/C (dose: 400.0 mg/kg/injection, schedule: Q04DX003 (ip), vehicle: saline with Tween-80) was 98 % of control.
For `O=C(N/N=C/c1ccc(O)cc1)c1ccccc1NC(=O)C1CC1`, the T/C [1] was 104 % of control, the T/C [3] was 89 % of control and the T/C [5] was 93 % of control.
`Cc1cc(N(CCOS(C)(=O)=O)CCOS(C)(=O)=O)ccc1C=Nc1ccc(C(=O)O)cc1` was tested, and the T/C (dose: 2.5 mg/kg/injection, schedule: Q04DX003 (ip), vehicle: Klucel (hydroxypropylcellulose) (HPC)) was 108 % of control, the T/C (dose: 5.0 mg/kg/injection, schedule: Q04DX003 (ip), vehicle: Klucel (hydroxypropylcellulose) (HPC)) was 113 % of control and the T/C (dose: 6.6 mg/kg/injection, schedule: Q04DX003 (ip), vehicle: Klucel (hydroxypropylcellulose) (HPC)) was 102 % of control. The T/C (dose: 10.0 mg/kg/injection, schedule: Q04DX003 (ip), vehicle: Klucel (hydroxypropylcellulose) (HPC)) was 103 % of control, the T/C (dose: 15.0 mg/kg/injection, schedule: Q04DX003 (ip), vehicle: Klucel (hydroxypropylcellulose) (HPC)) was 118 % of control and the T/C (dose: 20.0 mg/kg/injection, schedule: Q04DX003 (ip), vehicle: Klucel (hydroxypropylcellulose) (HPC)) was 113 % of control. For the same molecule, the T/C (dose: 40.0 mg/kg/injection, schedule: Q04DX003 (ip), vehicle: Klucel (hydroxypropylcellulose) (HPC)) was 114 % of control.
With `NC(=O)c1ccccc1OC(=O)Nc1ccccc1F` the T/C [7] was 106 % of control, the T/C [8] was 107 % of control and the T/C [9] was 107 % of control.
In the case of `O=C(/C=C/c1ccccc1)Sc1ccccc1`, the T/C [10] is reported as 88 % of control, the T/C [11] is reported as 88 % of control and the T/C [12] is reported as 107 % of control.
With `CCCCCc1c(C)nc([N+](=O)[O-])nc1N` the T/C (dose: 3.13 mg/kg/injection, schedule: Q01DX001 (ip), vehicle: saline with Tween-80) was 97 % of control, the T/C (dose: 6.25 mg/kg/injection, schedule: Q01DX001 (ip), vehicle: saline with Tween-80) was 101 % of control and the T/C (dose: 12.5 mg/kg/injection, schedule: Q01DX001 (ip), vehicle: saline with Tween-80) was 96 % of control.
With `CCC1(CC2CCCN(C)C2)c2ccccc2Sc2ccccc21` (stereo unspecified) the T/C (dose: 8.0 mg/kg/injection, schedule: Q01DX015 (ip), vehicle: carboxymethylcellulose (CMC)) was 105 % of control, the T/C (dose: 16.0 mg/kg/injection, schedule: Q01DX015 (ip), vehicle: carboxymethylcellulose (CMC)) was 94 % of control and the T/C (dose: 32.0 mg/kg/injection, schedule: Q01DX015 (ip), vehicle: carboxymethylcellulose (CMC)) was 91 % of control. For the same molecule, the T/C (dose: 64.0 mg/kg/injection, schedule: Q01DX015 (ip), vehicle: carboxymethylcellulose (CMC)) was 103 % of control and 110 % of control.
`COC1OC(CO)C(O)C(O)C1O` (stereo unspecified) was tested, and the T/C (dose: 44.0 mg/kg/injection, schedule: Q01DX001 (ip), vehicle: saline) was 102 % of control and 105 % of control, the T/C (dose: 50.0 mg/kg/injection, schedule: Q01DX001 (ip), vehicle: saline) was 102 % of control and the T/C (dose: 50.0 mg/kg/injection, schedule: Q01DX009 (ip), vehicle: saline) was 90 % of control. The T/C (dose: 66.0 mg/kg/injection, schedule: Q01DX001 (ip), vehicle: saline) was 96 % of control and 100 % of control, the T/C (dose: 100.0 mg/kg/injection, schedule: Q01DX001 (ip), vehicle: saline) was 100 % of control and 107 % of control and the T/C (dose: 100.0 mg/kg/injection, schedule: Q01DX009 (ip), vehicle: saline) was 109 % of control. For the same molecule, the T/C (dose: 150.0 mg/kg/injection, schedule: Q01DX001 (ip), vehicle: saline) was 105 % of control and 107 % of control, the T/C (dose: 200.0 mg/kg/injection, schedule: Q01DX001 (ip), vehicle: saline) was 100 % of control and the T/C (dose: 200.0 mg/kg/injection, schedule: Q01DX009 (ip), vehicle: saline) was 93 % of control. The T/C (dose: 400.0 mg/kg/injection, schedule: Q01DX001 (ip), vehicle: saline) was 111 % of control.
`CN(C)CC(C(=O)c1ccc(Br)cc1)C(Br)c1ccccc1` (stereo unspecified) was tested, and the T/C (dose: 0.78 mg/kg/injection, schedule: Q01DX009 (ip), vehicle: saline) was 94 % of control, the T/C (dose: 1.56 mg/kg/injection, schedule: Q01DX009 (ip), vehicle: saline) was 92 % of control and the T/C (dose: 3.12 mg/kg/injection, schedule: Q01DX009 (ip), vehicle: saline) was 97 % of control. For the same molecule, the T/C (dose: 12.5 mg/kg/injection, schedule: Q04DX003 (ip), vehicle: saline with Tween-80) was 95 % of control and the T/C (dose: 25.0 mg/kg/injection, schedule: Q04DX003 (ip), vehicle: saline with Tween-80) was 91 % of control.
In the case of `Cc1ccc(Oc2ccc3c(c2)CN(C)CC3)cc1`, the T/C [10] is reported as 97 % of control, the T/C [11] is reported as 102 % of control and the T/C [12] is reported as 91 % of control.
For `CC(C)N1CCOC1c1ccccc1` (stereo unspecified), the T/C (dose: 50.0 mg/kg/injection, schedule: Q01DX009 (ip), vehicle: saline sonified) was 105 % of control, the T/C (dose: 100.0 mg/kg/injection, schedule: Q01DX009 (ip), vehicle: saline sonified) was 105 % of control and the T/C (dose: 100.0 mg/kg/injection, schedule: Q04DX003 (ip), vehicle: saline) was 100 % of control. For the same molecule, the T/C (dose: 200.0 mg/kg/injection, schedule: Q01DX009 (ip), vehicle: saline sonified) was 100 % of control and the T/C (dose: 200.0 mg/kg/injection, schedule: Q04DX003 (ip), vehicle: saline) was 96 % of control.
With `COc1ccc(/C=N/N=C(\N)N[N+](=O)[O-])cc1OC` the T/C [7] was 102 % of control, the T/C (dose: 100.0 mg/kg/injection, schedule: Q04DX003 (ip), vehicle: saline sonified) was 92 % of control and the T/C [8] was 98 % of control. The T/C (dose: 200.0 mg/kg/injection, schedule: Q04DX003 (ip), vehicle: saline sonified) was 97 % of control, the T/C [9] was 97 % of control and the T/C (dose: 400.0 mg/kg/injection, schedule: Q04DX003 (ip), vehicle: saline sonified) was 91 % of control.
`Nc1c(Cl)ncnc1NCCCCCO` was tested, and the T/C [2] was 100 % of control, the T/C [4] was 94 % of control and the T/C [6] was 107 % of control.
`O=[N+]([O-])c1cc(/C=N/NC(=S)NC23CC4CC(CC(C4)C2)C3)ccc1Cl` was tested, and the T/C (dose: 75.0 mg/kg/injection, schedule: Q01DX001 (ip), vehicle: other) was 97 % of control, the T/C (dose: 150.0 mg/kg/injection, schedule: Q01DX001 (ip), vehicle: other) was 89 % of control and the T/C (dose: 300.0 mg/kg/injection, schedule: Q01DX001 (ip), vehicle: other) was 91 % of control.
